These are literature values, as cited in patent publication EP4605403B1, “METHOD AND COMPOSITION FOR OLIGONUCLEOTIDE SYNTHESIS” (Bachem Holding AG, priority 2022, dated 2024).

The conditions of this data set: protonated form of the base; in water at 25 °C; from A. Fischer et al., J. Chem. Soc. 1964, 3591-3596.

Take `Nc1ccncc1` [4-aminopyridine]: the pKa-value was 9.1.
